Measured values: US7192607B2, “Formulations for the prevention or the treatment of diseases affecting mucosae or skin, or for pregnancy prevention, and an applicator for the delivery of topical formulations into mucosal cavities” (Infectio Recherche Inc, priority 2002, dated 2007)

Tests used:
[1] = Concentration of acyclovir in plasma after topical application; format: in vivo; details: drug incorporated within the poloxamer matrix; infected vs uninfected mice; 24 h
[2] = In vivo skin penetration of antivirals (distribution in skin tissues); design: species or system mice
[3] = system: HSV-1 (strain F); test: Treatment of HSV-1 cutaneous lesions in mice with topical formulations; format: in vivo, hairless mice (SKH1); details: treatment started 24 h after infection, 3 times daily for 4 days
Protocol: For the purpose of testing the efficacy of our gel formulations in a murine model of cutaneous HSV-1 infection, the solutions were prepared within a phosphate buffer (0.2 M, pH 6) to be compatible with the pH of the skin.
The efficacy of our different topical formulations has been evaluated in a murine model of cutaneous HSV-1 infection. In brief, female hairless mice (SKH1; Charles River Breeding Laboratories Inc., St-Constant, QC, Canada), 5–7 weeks old were anesthetized by intraperitoneal injection of a mixture containing 70 mg/kg ketamine hydrochloride and 11.5 mg/kg xylazine. The virus was inoculated on the lateral side of the body in the left lumbar skin area. The skin was scratched six times with a 27 gauge needle held vertically in a crossed-hatched pattern. Fifty μl of viral suspension (HSV-1 strain F, 1.5×10^6 plaque forming units (PFU)/ml) was rubbed for 10 to 15 sec on the scarified skin area with a cotton tipped applicator saturated with culture medium [minimum essential medium (MEM) supplemented with 100 U/ml of penicillin-streptomycin, 2 mM L-glutamine and 2% fetal bovine serum (MEM-E +2% FBS)]. The scarified area was protected with a corn cushion which was maintained on the mice body with surgical tape. […]
Different treatment regimens were evaluated in this study. […] The efficacy of the different formulations was evaluated using lesion scores and survival.

[4] = system: HSV-1 (strain F); test: In vitro susceptibility of HSV-1 to combination of foscarnet and SLS in Vero cells (PFU); format: cell-based, Herpes simplex virus type-1; details: combinations of different concentrations in overlay, 2 days, FIG. 22
Protocol: The effect of SLS on the efficacy of foscamet against HSV-1 (strain F) was investigated in Vero cells. In brief, cells were seeded in 24 well-plates (Costar, Montreal, QC, Canada) and were incubated with HSV-1 strain F (approximately 100 PFU/ml) for 2 h at 37° C. to allow virus adsorption. Afterwards, virus was removed and cells overlaid with 0.5 ml of 0.6% agarose Seaplaque (Marine Colloids, Rockland, Mass.) containing different concentrations of foscarnet, SLS or combination of both compounds. The plates were incubated for 2 days at 37° C. Cells were then fixed with 10% formaldehyde in PBS for 20 min, washed with deionized water and stained with 0.05% methylene blue. Virus susceptibility was evaluated via the determination of PFU.

[5] = system: HSV-1 (strain F); test: Murine cutaneous infection model, HSV-1 pretreated with SLS or DS; format: in vivo, hairless mice (SKH1)
Protocol: The effect of pretreating HSV-1 (strain F) with SLS on viral infectivity has also been evaluated in a murine cutaneous infection model. Female hairless mice (SKH1; Charles River Breeding Laboratories Inc., St-Constant, QC, Canada), 5–6 weeks old were used throughout this study. […] Mice were anesthetized by intraperitoneal injection of a mixture containing 70 mg/kg ketamine hydrochloride (Rogarsetic* injection USP; Rogar/STB Inc. Montreal, QC, Canada) and 11.5 mg/kg xylazine (Rompun®; Miles Canada Inc., Etobicoke, ON, Canada). The virus was inoculated on the lateral side of the body in the left lumbar skin area. The skin was scratched six times in a crossed-hatched pattern with a 27-gauge needle held vertically. Viral suspension (50 μl) was deposited onto the scarified area and rubbed for 10 to 15 see with a cotton tipped applicator saturated with EMEM+2% FBS or SLS or DS solutions. The scarified area was protected with a corn cushion which was maintained on the mice body with surgical tape. The porous inner wall of the aperture of the corn cushion was impermeabilized with tissue adhesive prior to use to prevent absorption of the drug. The aperture of the corn cushion was also closed with surgical tape. Mice were then returned to their cages and observed twice daily.
In infected untreated mice, no pathological signs of cutaneous infection were visible during the first four days following infection and only the scarified area remained appearent. On day 5, herpetic skin lesions began to appear in some mice in the form of small vesicles distant from the inoculation site. On day 6, almost all untreated mice developed herpetic skin lesions in the form of a 4–5 mm wide band extending from the spine to the ventral midline of the infected dermatome similar to zoster-like infections. Maximal mean lesion score was observed on day 8. Mean lesion score decreased thereafter from day 11 to day 15 because of spontaneous regression of cutaneous lesions in some mice. […] Of prime importance, all mice infected with the virus pretreated with 100 μM SLS survived the infection (data not shown).

[6] = system: HSV-1 (strain F); test: Efficacy of SLS or DS added in overlay after infection against HSV-1 (strain F) in Vero cells (PFU); format: cell-based, Herpes simplex virus type-1; details: cells infected 2 h, compound in overlay for 2 days, FIG. 2
Protocol: In brief, cells were infected with the virus for 2 h at 37° C. Afterwards, supernatant was removed and cells were overlaid with 0.5 ml of EMEM +2% FBS containing 0.6% agarose Seaplaque and SLS or DS at the desired concentration. Plates were then incubated for 2 days at 37° C. in a 5% CO2 atmosphere. Cells were fixed with 10% formaldehyde in PBS for 20 min, washed with deionized water and stained with 0.05% methylene blue. Viral infectivity was evaluated following the determination of PFU.

[7] = system: HSV-1 (strain F); test: Infectivity of HSV-1 (strain F) to Vero cells after treatment with SLS or DS (plaque forming units); format: cell-based, Herpes simplex virus type-1; details: independent of whether the virus was pretreated, FIG. 1, read-out: concentration giving a loss of 50% of the viral infectivity
Protocol: The effect of pretreating different strains of herpes viruses with SLS or DS on their viral infectivities to susceptible cells has been evaluated. In brief, cells were seeded in 24 well-plates (Costar, Montreal, QC, Canada). Prior to infection, the virus was either suspended in culture medium or phosphate buffered saline (PBS), or incubated with different concentrations of SLS in PBS for 1 h at 37° C. At confluency, cells were incubated with viral suspensions by centrifuging the plates (750× g for 45 min at 20° C.) to allow virus adsorption. Virus was removed and cell sheets were then overlaid with 0.5 ml of 0.6% agarose Seaplaque (Marine Colloids, Rockland, Md.) prepared in appropriate culture medium. The plates were incubated for 2 days at 37° C. Cells were then fixed with 10% formaldehyde in PBS for 20 min, washed with deionized water and stained with 0.05% methylene blue. Viral infectivity was evaluated via the determination of Plaque Forming Units (PFU).
HSV-1 (strain F) infectivity was reduced to 21% when viral particles were pretreated with 25 μM SLS. The infectivities of all HSV-2 strains were between 50 to 70% following preincubation with 25 μM SLS. A complete loss of the infectivity of all strains tested were obtained following pretreatment of the viruses with 50 μM SLS.
When SLS was immediately added to Vero cells following their infection, the loss of viral infectivity was less dramatic compared to that obtained for virus pretreated for 1 h at 37° C. with the same SLS concentrations. […] Similarly, pretreatment of the HSV-2 (strain 333) with SLS also influenced the infectivity of this strain (data not shown). On the other hand, DS reduces the infectivity of the virus independent of whether the virus was pretreated with DS.

[8] = system: Vero cells; test: Viability of Vero cells exposed to SLS or DS (MTS test); details: Vero cells exposed 1 h at 37° C. to concentrations as in FIG. 1 and Table 1; data not shown

Nc1nc2c(ncn2COCCO)c(=O)[nH]1 [acyclovir]
increase of concentration in plasma by infection [1]: 4 fold
effect of infection on amount in the epidermis ([2]; infected vs uninfected mice, 24 h): did not significantly increase
concentration in the epidermis and dermis compared with that of foscarnet ([2]; uninfected and infected mice, irrespective of the carrier, 24 h): higher

O=C(O)P(=O)(O)O [foscarnet]
mice that survived the infection ([3]; 0.5% foscarnet in solution): Half
mean lesion score ([3]; solution of 0.5% foscarnet): large reduction
efficacy of foscarnet against HSV-1 (strain F) in the presence of SLS [4]: enhanced
concentration in the epidermis and dermis ([2]; infected mice, drug incorporated within the poloxamer vs phosphate buffer, 24 h): significantly higher
amounts found in the underlying epidermis and dermis ([2]; uninfected mice, irrespective of the carrier, 24 h after topical application): No or negligible amounts

dextran sulfate [DS]
mean lesion score ([5]; virus pretreated with 0.25 nM DS): partial reduction
protection against the development of herpetic lesions ([5]; virus pretreated with either 1 or 10 nM DS): better protection
concentration with complete efficacy against viral replication [6]: 20 µM
IC50 [7]: ~1 nM
cytotoxicity (viability, MTS test) [8]: No signs of cytotoxicity
